ChEMBL document CHEMBL1201862, “PubChem BioAssay data set” (2004)
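A five-concentration, 48-hour dose response in 96-well plates underlies each endpoint, interpolated linearly between surrounding concentrations. GI50 is the concentration that inhibits growth by half.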 The source made the active and inactive calls. Rule as the data show it: active = GI50 up to about 1.1 µM and inactive = higher.

Assays:
Assay in all cases: DTP human tumour cell line panel, 48 h
786-0 = tested on: 786-0
A498 = tested on: A498
A549 = tested on: A549
ACHN = tested on: ACHN
BT-549 = tested on: BT-549
CAKI-1 = tested on: CAKI-1
CCRF-CEM = tested on: CCRF-CEM
COLO 205 = tested on: COLO 205
DU-145 = tested on: DU-145
EKVX = tested on: EKVX
HCC 2998 = tested on: HCC 2998
HCT-116 = tested on: HCT-116
HCT-15 = tested on: HCT-15
HL-60 = tested on: HL-60
HOP-62 = tested on: HOP-62
HT-29 = tested on: HT-29
Hs-578T = tested on: Hs-578T
IGROV-1 = tested on: IGROV-1
K562 = tested on: K562
KM12 = tested on: KM12
LOX IMVI = tested on: LOX IMVI
M14 = tested on: M14
MCF7 = tested on: MCF7
MDA-MB-231 = tested on: MDA-MB-231
MDA-MB-435 = tested on: MDA-MB-435
MDA-N = tested on: MDA-N
MOLT-4 = tested on: MOLT-4
Malme-3M = tested on: Malme-3M
NCI-H226 = tested on: NCI-H226
NCI-H23 = tested on: NCI-H23
NCI-H460 = tested on: NCI-H460
NCI/ADR-RES = tested on: NCI/ADR-RES
OVCAR-3 = tested on: OVCAR-3
OVCAR-4 = tested on: OVCAR-4
OVCAR-5 = tested on: OVCAR-5
OVCAR-8 = tested on: OVCAR-8
PC-3 = tested on: PC-3
RPMI-8226 = tested on: RPMI-8226
RXF 393 = tested on: RXF 393
SF-268 = tested on: SF-268
SF-295 = tested on: SF-295
SF-539 = tested on: SF-539
SK-MEL-28 = tested on: SK-MEL-28
SK-MEL-5 = tested on: SK-MEL-5
SK-OV-3 = tested on: SK-OV-3
SN12C = tested on: SN12C
SNB-19 = tested on: SNB-19
SNB-75 = tested on: SNB-75
SR = tested on: SR
SW-620 = tested on: SW-620
TK-10 = tested on: TK-10
U-251 = tested on: U-251
UACC-257 = tested on: UACC-257
UACC-62 = tested on: UACC-62
UO-31 = tested on: UO-31
HOP-92 = tested on: HOP-92
NCI-H522 = tested on: NCI-H522
SK-MEL-2 = tested on: SK-MEL-2

Measured: GI50

C(=C\c1cc(-c2ccc3ccccc3n2)nc2ccc3ccccc3c12)/c1ccc2ccccc2n1
> 100 µM: HCT-15
inactive: 786-0 > 100 µM | A498 > 100 µM | A549 > 100 µM | ACHN > 100 µM | BT-549 > 100 µM | CAKI-1 > 100 µM | CCRF-CEM > 100 µM | COLO 205 > 100 µM | DU-145 > 100 µM | EKVX > 100 µM | HCC 2998 > 100 µM | HCT-116 > 100 µM | HL-60 > 100 µM | HOP-62 > 100 µM | HT-29 > 100 µM | Hs-578T 29.4 µM | IGROV-1 > 100 µM | K562 > 100 µM | KM12 > 100 µM | LOX IMVI > 100 µM | M14 > 100 µM | MCF7 > 100 µM | MDA-MB-231 > 100 µM | MDA-MB-435 > 100 µM | MDA-N > 100 µM | MOLT-4 > 100 µM | Malme-3M > 100 µM | NCI-H226 > 100 µM | NCI-H23 > 10 µM | NCI-H460 > 100 µM | NCI/ADR-RES > 100 µM | OVCAR-3 > 100 µM | OVCAR-4 > 100 µM | OVCAR-5 > 100 µM | OVCAR-8 > 100 µM | PC-3 > 100 µM | RPMI-8226 > 100 µM | RXF 393 > 100 µM | SF-268 74.1 µM | SF-295 > 100 µM | SF-539 62.2 µM | SK-MEL-28 > 100 µM | SK-MEL-5 > 100 µM | SK-OV-3 > 100 µM | SN12C > 100 µM | SNB-19 > 100 µM | SNB-75 24 µM | SR > 100 µM | SW-620 > 100 µM | TK-10 > 100 µM | U-251 > 100 µM | UACC-257 > 100 µM | UACC-62 > 100 µM | UO-31 > 100 µM

COC(CN(C(C)=O)C1CCC2(SCCS2)c2[nH]c3ccccc3c21)OC (stereo not drawn)
inactive: 786-0 > 100 µM | A498 > 100 µM | A549 > 100 µM | ACHN > 100 µM | BT-549 > 100 µM | CAKI-1 > 100 µM | CCRF-CEM > 100 µM | COLO 205 > 100 µM | DU-145 > 100 µM | EKVX 72.1 µM | HCC 2998 > 100 µM | HCT-116 > 100 µM | HL-60 89.9 µM | HOP-62 > 100 µM | HOP-92 > 100 µM | HT-29 > 100 µM | Hs-578T 54.6 µM | IGROV-1 > 100 µM | K562 > 100 µM | KM12 > 100 µM | M14 > 100 µM | MCF7 > 100 µM | MDA-MB-231 > 100 µM | MDA-MB-435 > 100 µM | MDA-N > 100 µM | MOLT-4 60.8 µM | Malme-3M > 100 µM | NCI-H226 > 100 µM | NCI-H23 > 100 µM | NCI-H460 > 100 µM | NCI-H522 > 100 µM | NCI/ADR-RES > 100 µM | OVCAR-3 > 100 µM | OVCAR-4 62.7 µM | OVCAR-5 > 100 µM | OVCAR-8 > 100 µM | PC-3 > 100 µM | RPMI-8226 > 100 µM | RXF 393 38.6 µM | SF-268 > 100 µM | SF-539 > 100 µM | SK-MEL-28 > 100 µM | SK-MEL-2 > 100 µM | SK-MEL-5 > 100 µM | SN12C > 100 µM | SNB-19 > 100 µM | SNB-75 > 100 µM | SR 57.9 µM | SW-620 > 100 µM | TK-10 > 100 µM | U-251 > 100 µM | UO-31 > 100 µM
> 100 µM: HCT-15
active: LOX IMVI 0.0422 µM | SF-295 0.207 µM | UACC-257 0.773 µM

CC(C)=CCc1cc(/C=C/C(=O)O)cc(CC=C(C)C)c1O [ARTEPILLIN]
inactive: 786-0 > 100 µM | A498 > 100 µM | A549 > 100 µM | ACHN > 100 µM | BT-549 > 100 µM | CAKI-1 > 100 µM | CCRF-CEM > 100 µM | COLO 205 > 100 µM | DU-145 > 100 µM | EKVX 81.7 µM | HCT-116 > 100 µM | HL-60 > 100 µM | HOP-62 > 100 µM | HOP-92 19.7 µM | HT-29 47.3 µM | Hs-578T > 100 µM | IGROV-1 73.5 µM | K562 76 µM | KM12 76 µM | LOX IMVI 43.7 µM | M14 > 100 µM | MCF7 > 100 µM | MDA-MB-231 > 100 µM | MDA-MB-435 > 100 µM | MDA-N > 100 µM | MOLT-4 > 100 µM | NCI-H23 > 100 µM | NCI-H460 > 100 µM | NCI-H522 31.3 µM | NCI/ADR-RES > 100 µM | OVCAR-3 > 100 µM | OVCAR-4 > 100 µM | OVCAR-5 > 100 µM | OVCAR-8 > 100 µM | PC-3 > 100 µM | RPMI-8226 76.6 µM | SF-268 > 100 µM | SF-295 > 100 µM | SF-539 > 100 µM | SK-MEL-2 > 100 µM | SK-MEL-5 > 100 µM | SK-OV-3 > 100 µM | SN12C > 100 µM | SNB-19 > 100 µM | SR > 100 µM | SW-620 > 100 µM | TK-10 > 100 µM | U-251 > 100 µM | UACC-257 > 100 µM | UACC-62 66.8 µM | UO-31 87.5 µM
76 µM: HCT-15
